In publication PMC9138090, “Study on the Neuroprotective, Radical-Scavenging and MAO-B Inhibiting Properties of New Benzimidazole Arylhydrazones as Potential Multi-Target Drugs for the Treatment of Parkinson’s Disease” (Antioxidants, 2022):
“Also recorded” adds a separate entry of the source.

Legend:
SH-SY5Y cells [1] = test: MTT cytotoxicity on SH-SY5Y cells; assay type: cell-based, human; conditions: MTT test, 24 h incubation; read-out: IC50, in vitro cytotoxicity on SH-SY5Y cells
Procedure: (§1) Human neuroblastoma cell line SH-SY5Y was obtained from the European Collection of Cell Cultures (ECACC, Salisbury, UK). The cells were maintained in 75 cm^2 flasks at 37 °C in a humidified atmosphere with 5% CO2 and cultured in RPMI 1640 medium, supplemented with 10% fetal bovine serum and 2 mM L-glutamine.
(§2) MTT (Sigma-Aldrich Chemie GmbH, Schnelldorf, Germany) assay is based on interaction between tetrazolium dye 3-(4,5-dimethylthiazol-2-yl)-2,5-diphenyltetrazolium bromide and succinic dehydrogenase in the living cells’ mitochondria. In this reaction, the formed purple formazan crystals indicate the presence of viable cells. SH-SY5Y cells were seeded in 96-well microplates at a density 2.5 × 10^4 cells/well and allowed to attach to the well surface at 37 °C in a humidified atmosphere with 5% CO2 (24 h). Different concentrations of compounds ([…]) were added to cells and incubated for 24 h. For each concentration, a set of at least 8 wells were used. After the treatment, the solution in each well was substituted with MTT (3-(4,5-dimethylthiazol-2-yl)-2,5-diphenyltetrazolium bromide) solution (0.5 mg/mL in culture medium). The microplates were further incubated for 3 h at 37 °C and the obtained formazan crystals were dissolved by 100 µL/well of DMSO. The absorbance was measured in a multiplate reader Synergy 2 (BioTek Instruments, Inc, Highland Park, Winooski, VT, USA) at 570 nm (690 nm for background absorbance).
(§3) An important step in the development of new pharmacologically active compounds is the establishment of their safety profile. An in vitro toxicity evaluation was carried out on the neuroblastoma cell line SH-SY5Y, which is a well-established model in neuroscience. The neuroblastoma SH-SY5Y are human derived cells with relatively homogeneous neuroblast-like structure. The cells express a dopamine-β-hydroxylase and tyrosine hydroxylase enzyme activity, specific types of human proteins and protein isoforms. The possible neurotoxic effects of the potential drug candidates were measured by cell viability assay (MTT-test). The IC50 values were used as a robust parameter for comparison. The test compounds were dissolved in DMSO and serially diluted in cell culture medium to achieve final concentrations ranging from 1 to 500 µM; the culture medium containing DMSO in the corresponding concentration was used as untreated controls. A concentration dependent effect on cell viability was observed after 24 h incubation.

[2] = MTT cytotoxicity on SH-SY5Y cells; assay type: cell-based, human; conditions: human, SH-SY5Y neuroblastoma cells, MTT test, 24 h incubation; read-out: IC50, in vitro cytotoxicity on SH-SY5Y cells
Procedure: as §1, §2, §3

[3] = Superoxide scavenging, non-enzymatic KO2/NBT assay; conditions: 100 µM; text says enzymatic assay
Procedure: Superoxide radicals scavenging activity (non-enzymatic assay): 1 mL PBS, pH 7.4 contains 0.04 mmol/L NBT and the tested hydrazone in the concentrations indicated on the figures. No drug was added to the control samples. One minute after the addition of 20 μL of KO2 dissolved in DMSO, the absorbance at 560 nm was measured.
The results from both assays have been presented as a percentage of the control sample.
The potency of the compounds selected as the most promising from the cell model systems and hMAOB inhibitory studies was estimated against enzymatically (xanthine/XO system) and non-enzymatically (KO2/NBT) produced superoxide radicals (Figure 7). In the xanthine-xanthine oxidase system the generation of O2^−^● is a result of an enzymatic reaction. The molecular mechanism of action of the XO enzyme is associated with catalysation of the reaction of oxidation of hypoxanthine and xanthine and generation of uric acid. During the process of reoxidation of the enzyme, the molecular oxygen acts as an electron acceptor and the formation of physiologically important ROS, such as the superoxide radical (O2^−^●) and hydrogen peroxide (H2O2), has been observed. In the potassium superoxide-containing systems, superoxide radical generation is due to the direct addition of the KO2 to the water sample solution. […]

[4] = Fe(II)-induced oxidative damage of lecithin (TBA-RS); conditions: 90 µmol/L
Procedure: (§4) The classical method of determining the TBA-reactive substances at 532 nm as described by Asakawa and Matsushita has been used. Two groups of measurement compositions named controls and samples were prepared in phosphate buffer (K2HPO4/KH2PO4, pH 7.4) for each of the used substrates. Both of them contained equivalent concentrations of lecithin (1 mg/mL) or 2-deoxyribose (0.5 mmol/L) and FeCl2 (0.1 mmol/L). In the controls, the tested hydrazones have been omitted and in the samples the effect of the newly designed compounds at the concentrations indicated below the figures has been determined. The obtained samples were incubated at 37 °C for 30 min. The reaction was stopped, and after adding 0.5 mL 2.8% trichloroacetic acid and 0.5 mL of thiobarbituric acid, the samples were heated in boiling water for 20 min. The lecithin containing samples were centrifuged at 3000 rpm for 20 min and the supernatant was aspired out. The results have been presented as a percentage of the control sample, treated only with ferrous iron where we expected maximum oxidative damage under the described conditions.

[5] = Fe(II)-induced degradation of 2-deoxyribose (TBA-RS); conditions: 80 µmol/L, 2-deoxyribose 0.5 mmol/L
Procedure: as §4

SH-SY5Y cells [6] = test: H2O2-induced oxidative stress model in SH-SY5Y cells; assay type: cell-based, human; conditions: for cell viability protection vs. H2O2-treatment: 50 µM, 90 min pre-incubation, H2O2 1 mM 15 min; for protective effect in H2O2-induced oxidative stress model (in words): 1, 10, 50 µM
Procedure: SH-SY5Y cells were seeded in 96-well plates at a density of 3.5 × 10^4/well and allowed to attach at the wells’ bottom overnight. […] Afterwards, the SH-SY5Y cells were washed with phosphate-buffered saline (PBS) to remove the extracellular amount of the test compounds. […] Then, the contents of all wells were changed with culture medium. After 24 h, the amount of attached viable cells was evaluated by MTT assay. […] Rasagiline and melatonin (Sigma-Aldrich Chemie GmbH) were used as reference compounds because of their well-established neuroprotective activity. […] The toxic mechanisms of hydrogen peroxide include the generation of reactive hydroxyl radicals and formation of products which could damage cellular lipids, proteins and DNA. […] For comparison, the effects of two compounds with well established antioxidant activity—rasagiline and melatonin—were also evaluated.

With `O=C(CCn1c(=S)n(CCC(=O)NN=Cc2ccccc2O)c2ccccc21)NN=Cc1ccccc1O` [3e, 3,3′-(2-Thioxo-1H-benzo[d]imidazole-1,3(2H)-diyl)bis(N′-(2-hydroxybenzylidene)propanehydrazide)] the IC50 (SH-SY5Y cells [1]) was 235 µM, the IC50 at 24 h [2] was > 200 µM and the “increase of absorbance compared to the controls” value [3] was 1.5 times.
For `O=C(CCn1c(=S)n(CCC(=O)NN=Cc2cccc(O)c2O)c2ccccc21)NN=Cc1cccc(O)c1O` [3h, 3,3′-(2-Thioxo-1H-benzo[d]imidazole-1,3(2H)-diyl)bis(N′-(2,3-dihydroxybenzylidene)propanehydrazide)], the “sample/control absorbance ratio (% of the control), lecithin peroxidation” value ([4]; lecithin 1 mg/mL, FeCl2 0.1 mmol/L) was “around 40%”, the “antioxidant effect on Fe(II) induced deoxyribose degradation (in words)” value [5] was “stronger than the reference melatonin and similar to Trolox; also recorded: better protection effect than the reference melatonin, and a similar effect to the antioxidant Trolox” and the IC50 (SH-SY5Y cells [1]) was 296 µM. The IC50 at 24 h [2] was > 250 µM, the “cell viability protection vs. H2O2-treatment” value (SH-SY5Y cells [6]) was 79% and the “protective effect in H2O2-induced oxidative stress model (in words)” value (SH-SY5Y cells [6]) was “even more pronounced than those of melatonin and rasagiline”.
With `O=C(CCn1c(=S)n(CCC(=O)NN=Cc2ccc(O)cc2O)c2ccccc21)NN=Cc1ccc(O)cc1O` [3i, 3,3′-(2-Thioxo-1H-benzo[d]imidazole-1,3(2H)-diyl)bis(N′-(2,4-dihydroxybenzylidene)propanehydrazide)] the “lecithin peroxidation effect compared with 3a (in words)” value [4] was “statistically identical effect to 3a”, the IC50 (SH-SY5Y cells [1]) was 301 µM and the IC50 at 24 h [2] was > 250 µM. For the same molecule, the “cell viability protection vs. H2O2-treatment” value (SH-SY5Y cells [6]) was 80%, the “protective effect in H2O2-induced oxidative stress model (in words)” value (SH-SY5Y cells [6]) was “even more pronounced than those of melatonin and rasagiline” and the “increase of absorbance compared to the controls” value [3] was 2.5 times.
In the case of `COc1ccc(C=NNC(=O)CCn2c(=S)n(CCC(=O)NN=Cc3ccc(OC)cc3O)c3ccccc32)c(O)c1` [3m, 3,3′-(2-Thioxo-1H-benzo[d]imidazole-1,3(2H)-diyl)bis(N′-(2-hydroxy-4-methoxybenzylidene)propanehydrazide)], the IC50 (SH-SY5Y cells [1]) is reported as 211 µM and the IC50 at 24 h [2] is reported as > 200 µM.
